Experimental data from patent US12606541B2, “PPARg modulators and methods of use” (Eisai R&D Management Co., Ltd., priority 2020, dated 2026).
Where two headings read alike, the source gives them in different places.

Tests used:
UM-UC-9 engineered cells = experiment: Cell proliferation / short-term viability assay, CellTiter-Glo 144 h; type: cell-based, human; conditions: read-out: CTGlo 144 h UMUC9.5, G150
Procedure, shortened: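 UM-UC-9 engineered assay-ready cells seeded at 500 cells/well in high-glucose DMEM/10% FBS, treated from dose-response plates, grown at 37° C, 5% CO2. CellTiter-Glo 2.0 luminescence read on day 7, with a day-0 pretreatment plate as T0 reference and DMSO wells as negative control.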

His6-TEV-PPARγ-(234-505) = target: T1, His6-TEV-PPARγ-(234-505) (Homo sapiens, UniProt P37231); experiment: TR-FRET Assay to Measure Co-R Peptide Recruitment to PPARγ; type: biochemical; conditions: Co-R peptide (SMRT-ID2) recruitment; top final concentration 20 μM; read-out: TR-FRET i-Ag; AC50
T1 construct: The His6-TEV-PPARγ-(234-505) protein for assay was expressed and purified; TEV cleavage site (N); made in house
T1 sequence (P37231 234-505): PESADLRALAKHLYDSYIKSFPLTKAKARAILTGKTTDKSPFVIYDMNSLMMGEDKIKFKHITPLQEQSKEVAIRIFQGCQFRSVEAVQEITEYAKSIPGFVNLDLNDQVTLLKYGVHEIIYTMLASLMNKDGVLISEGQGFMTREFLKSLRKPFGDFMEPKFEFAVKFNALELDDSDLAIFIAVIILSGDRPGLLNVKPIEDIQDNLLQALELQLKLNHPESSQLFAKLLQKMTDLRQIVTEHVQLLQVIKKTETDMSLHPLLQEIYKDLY
Procedure, shortened: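 His-tagged PPARγ (or controls) was preincubated with compound for 20 minutes at room temperature, then 5 nM anti-His terbium antibody and 200 nM FITC-labeled SMRT-ID2 corepressor peptide (final) were added for a further hour. TR-FRET signal was normalized to percent response using 500 nM T0070907 and DMSO controls.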

Row | Compound | AC50 (His6-TEV-PPARγ-(234-505)) [nM] | IC50 (UM-UC-9 engineered cells) [nM] | IC50 (UM-UC-9 engineered cells; Homo sapiens, UM-UC-9, 144 h) [nM]
1 | COc1cc(-c2cc(C(=O)N3CCC(C(=O)NCC4CCn5cncc5C4)CC34CC4)n[nH]2)c(F)cn1 (single isomer, unassigned) [Example 342-A] | 50.8 | 1210 | 
2 | COc1cc(-c2cc(C(=O)N3CCC(C(=O)NCC4CCn5cncc5C4)CC34CC4)n[nH]2)c(F)cn1 (single isomer, unassigned) [Example 342-B] | 42.8 | 682 | 
3 | COc1cc(-c2cc(C(=O)N3CCC(C(=O)NCC4CCn5c(C)nnc5C4)CC34CC4)n[nH]2)c(F)cn1 (single isomer, unassigned) [Example 346-B] | 1120 | 2410 | 
4 | COc1cc(-c2cc(C(=O)N3CCC(NC(=O)C4CCC(O)(C(F)(F)F)CC4)CC34CC4)n[nH]2)c(F)cn1 (single isomer, unassigned) [Example 347-A] | 81.6 | 396 | 
5 | COc1cc(-c2cc(C(=O)N3CCC(NC(=O)C4CCC(O)(C(F)(F)F)CC4)CC34CC4)n[nH]2)c(F)cn1 (single isomer, unassigned) [Example 347-B] | 198 | 600 | 
6 | COc1cc(-c2cc(C(=O)N3CCC(NC(=O)C4CCC(O)(C(F)(F)F)CC4)CC34CC4)n[nH]2)c(F)cn1 (single isomer, unassigned) [Example 347-C] | 5080 | > 10000 | 
7 | COc1cc(-c2cc(C(=O)N3CCC(NC(=O)C4CCC(O)(C(F)(F)F)CC4)CC34CC4)n[nH]2)c(F)cn1 (single isomer, unassigned) [Example 347-D] | ≥ 20000 | > 10000 | 
8 | COc1cc(-c2cc(C(=O)N3CCC(C(=O)NC4CCC(O)(C(F)(F)F)CC4)CC3C(F)(F)F)n[nH]2)c(F)cn1 (single isomer, unassigned) [Example 367-A] | 56.7 | 161 | 
9 | COc1cc(-c2cc(C(=O)N3CC[C@H](C(=O)NC4CCC(O)(C(C)(F)F)CC4)CC34CC4)n[nH]2)c(F)cn1 (single isomer, unassigned) [Example 375-A] | 3.4 | 1.3 | 
10 | COc1cc(-c2cc(C(=O)N3CC[C@H](C(=O)NC4CCC5CCCN5C4)CC34CC4)n[nH]2)c(F)cn1 (single isomer, unassigned) [Example 376-B] | 1600 | 3880 | 
11 | COc1cc(-c2cc(C(=O)N3CC[C@H](C(=O)NC4CCC5CCCN5C4)CC34CC4)n[nH]2)c(F)cn1 (single isomer, unassigned) [Example 376-C] | 19.2 | 23.6 | 
12 | COc1cc(-c2cc(C(=O)N3CC[C@H](C(=O)NC4CCC5CCCN5C4)CC34CC4)n[nH]2)c(F)cn1 (single isomer, unassigned) [Example 376-D] | 129 | 71.4 | 
13 | COc1cc(-c2cc(C(=O)N3CCC(C(=O)NC4CCC(O)(C(F)(F)F)CC4)CC3(C)C)n[nH]2)c(F)cn1 (single isomer, unassigned) [Example 407-A] | 16 | 14 | 
14 | COc1cc(-c2cc(C(=O)N3CCC(C(=O)NC4CCC(O)(C(F)(F)F)CC4)CC3(C)C)n[nH]2)c(F)cn1 (single isomer, unassigned) [Example 407-B] | 1690 | 1340 | 
15 | COc1cc(-c2cc(C(=O)N3CC[C@H](C(=O)NC(C)c4cn5c(n4)COCC5)CC34CC4)n[nH]2)c(F)cn1 (single isomer, unassigned) [Example 415-A] | 88.1 | 304 | 
16 | COc1cc(-c2cc(C(=O)N3CC[C@H](C(=O)NC4CCC(N5CCOCC5)CC4)CC34CC4)n[nH]2)c(F)cn1 (single isomer, unassigned) [Example 418-A] | 67.4 |  | 152
17 | COc1cc(-c2cc(C(=O)N3CC[C@H](C(=O)NC4CCN(CCF)C(C)(C)C4)CC34CC4)n[nH]2)c(F)cn1 (single isomer, unassigned) [Example 425-A] | 2510 | > 10000 | 
18 | COc1cc(-c2cc(C(=O)N3CC[C@H](C(=O)NC4CN(C5CCOC5)C4)CC34CC4)n[nH]2)c(F)cn1 (single isomer, unassigned) [Example 433-B] | 61.1 | 249 | 
19 | COc1cc(-c2cc(C(=O)N3CC[C@H](C(=O)Nc4cnn5ccc(C(C)O)nc45)CC34CC4)n[nH]2)c(F)cn1 (single isomer, unassigned) [Example 445-A] | 0.6 | 15.4 | 
20 | COc1cc(-c2cc(C(=O)N3CC[C@H](C(=O)NC4CCN(c5ccnc6[nH]ncc56)C4)CC34CC4)n[nH]2)c(F)cn1 (single isomer, unassigned) [Example 450-A] | 3.3 | 162 | 
21 | COc1cc(-c2cc(C(=O)N3CC[C@H](C(=O)NC4CCN(c5cnnc(C)c5)C4)CC34CC4)n[nH]2)c(F)cn1 (single isomer, unassigned) [Example 452-A] | 8.7 | 2010 | 
22 | COc1cc(-c2cc(C(=O)N3CC[C@H](C(=O)NC4CCN(c5cnnc(C)c5)C4)CC34CC4)n[nH]2)c(F)cn1 (single isomer, unassigned) [Example 452-B] | 142 | > 10000 | 
23 | COc1cc(-c2cc(C(=O)N3CC[C@H](C(=O)NC4CCN(c5cnc(C)nc5)C4)CC34CC4)n[nH]2)c(F)cn1 (single isomer, unassigned) [Example 453-A] | 6 | 14.7 | 

More lines, main results first:

Row | AC50 (His6-TEV-PPARγ-(234-505)) [nM] | Compound | IC50 (UM-UC-9 engineered cells) [nM] | IC50 (UM-UC-9 engineered cells; Homo sapiens, UM-UC-9, 144 h) [nM]
24 | 504 | COc1cc(-c2cc(C(=O)N3CCC(C(=O)NCC4CCn5c(C)nnc5C4)CC34CC4)n[nH]2)c(F)cn1 (single isomer, unassigned) [Example 346-A] | 2790 | 
25 | 10.4 | COc1cc(-c2cc(C(=O)N3CCC(C(=O)NC4CC(N5CCC(F)(F)C5)C4(C)C)CC34CC4)n[nH]2)c(F)cn1 (single isomer, unassigned) [Example 355-A] | 3.5 | 
26 | 9.4 | COc1cc(-c2cc(C(=O)N3CCC(C(=O)NC4CC(N5CCC(F)(F)C5)C4(C)C)CC34CC4)n[nH]2)c(F)cn1 (single isomer, unassigned) [Example 355-B] | 3.3 | 
27 | 12.7 | COc1cc(-c2cc(C(=O)N3CCC(C(=O)NC4CCC(O)(C(F)(F)F)CC4)CC3C(F)(F)F)n[nH]2)c(F)cn1 (single isomer, unassigned) [Example 367-B] | 6.8 | 
28 | 897 | COc1cc(-c2cc(C(=O)N3CC[C@H](C(=O)NC4CCC5CCCN5C4)CC34CC4)n[nH]2)c(F)cn1 (single isomer, unassigned) [Example 376-A] | 1730 | 
29 | 671 | COc1cc(-c2cc(C(=O)N3CC[C@H](C(=O)NC(C)c4nnc(C5CC5)o4)CC34CC4)n[nH]2)c(F)cn1 (single isomer, unassigned) [Example 395-B] |  | 593
30 | 298 | COc1cc(-c2cc(C(=O)N3CC[C@H](C(=O)NC4CCC(N)(C(F)(F)F)CC4)CC34CC4)n[nH]2)c(F)cn1 (single isomer, unassigned) [Example 399-A] |  | 176
31 | 4.5 | COc1cc(-c2cc(C(=O)N3CC[C@H](C(=O)NC4CCC(CO)(C(F)(F)F)CC4)CC34CC4)n[nH]2)c(F)cn1 (single isomer, unassigned) [Example 408-A] | 3.9 | 
32 | 160 | COc1cc(-c2cc(C(=O)N3CC[C@H](C(=O)NC(C)C45CCC(O)(CC4)CC5)CC34CC4)n[nH]2)c(F)cn1 (single isomer, unassigned) [Example 411-A] | 527 | 
33 | 283 | COc1cc(-c2cc(C(=O)N3CC[C@H](C(=O)NC(C)c4cn5c(n4)COCC5)CC34CC4)n[nH]2)c(F)cn1 (single isomer, unassigned) [Example 415-B] | 867 | 
34 | 1030 | COc1cc(-c2cc(C(=O)N3CC[C@H](C(=O)NC4CCC(C)(C)N(C)C4)CC34CC4)n[nH]2)c(F)cn1 (single isomer, unassigned) [Example 424-A] | 2980 | 
35 | 209 | COc1cc(-c2cc(C(=O)N3CC[C@H](C(=O)NC4CCC(C)(C)N(C)C4)CC34CC4)n[nH]2)c(F)cn1 (single isomer, unassigned) [Example 424-B] | 929 | 
36 | 917 | COc1cc(-c2cc(C(=O)N3CC[C@H](C(=O)NC4CCN(CCF)C(C)(C)C4)CC34CC4)n[nH]2)c(F)cn1 (single isomer, unassigned) [Example 425-B] | > 10000 | 
37 | 126 | COc1cc(-c2cc(C(=O)N3CC[C@H](C(=O)NC4CN(C5CCOC5)C4)CC34CC4)n[nH]2)c(F)cn1 (single isomer, unassigned) [Example 433-A] | 347 | 
38 | 11 | COc1cc(-c2cc(C(=O)N3CC[C@H](C(=O)Nc4cnn5ccc(C(C)O)nc45)CC34CC4)n[nH]2)c(F)cn1 (single isomer, unassigned) [Example 445-B] | 116 | 
39 | 6.8 | COc1cc(-c2cc(C(=O)N3CC[C@H](C(=O)NC4CCN(c5ccnc6[nH]ncc56)C4)CC34CC4)n[nH]2)c(F)cn1 (single isomer, unassigned) [Example 450-B] | 834 | 
